ChEMBL document CHEMBL2046394, “Isolation and characterization of α,β-unsaturated γ-lactono-hydrazides from Streptomyces sp” (J Nat Prod, 2012)
Activity calls are given as the source filed them. The rule behind the calls is not given here.

Key:
Bacillus subtilis = assay: Antibacterial activity against Bacillus subtilis ATCC 6633 by disk inhibition zone method; format: functional, organism-based
Escherichia coli = assay: Antibacterial activity against Escherichia coli ATCC 25922 by disk inhibition zone method; format: functional, organism-based
Micrococcus luteus = assay: Antibacterial activity against Micrococcus luteus ATCC 10240 by disk inhibition zone method; format: functional, organism-based
[1] = Cytotoxicity against human MDA231 cells assessed as growth inhibition after 72 hrs; format: functional, cell-based; details: MDA-MB-231, 72 h
Caco-2 = assay: Cytotoxicity against human Caco2 cells by MTT assay; format: functional, cell-based

| Structure (SMILES) | Activity (Bacillus subtilis) | Activity (Escherichia coli) | Activity (Micrococcus luteus) | IC50 [1] | IC50 (Caco-2) |
| --- | --- | --- | --- | --- | --- |
| O=C(O)CCC1=CCOC1=O | inactive | inactive | inactive | – | – |
| CCCC/C=C\N(NC(C)=O)C(=O)CCC1=CCOC1=O [GERALCIN B] | inactive | inactive | inactive | 5 µM | – |
| COc1cc(/C=C/C(=O)N(CCc2c[nH]c3ccc(O)cc23)N(CCc2c[nH]c3ccc(O)cc23)C(=O)/C=C/c2ccc(O)c(OC)c2)ccc1O [MONTAMINE] | – | – | – | – | 43.9 µM |
| CCCCCCN(NC(=O)CO)C(=O)CCC1=CCOC1=O | inactive | inactive | inactive | – | – |
